From US20230265151A1, “GIP/GLP1 CO-AGONIST COMPOUNDS” (priority 2020, published 2023)
Where two headings read alike, the source gives them in different places.

What was measured:
[1] = target: T1, hGIPR (Homo sapiens, UniProt P48546); assay: Functional cAMP formation (HTRF) in HEK-293 clonal cells expressing hGIPR, 0.1% bovine casein, without or with 1.0% human serum albumin; type: cell-based; settings: for Emax: percent of maximal response to GIP(1-42)NH2; for EC50: geometric mean
T1 construct: expressed in transfected cells
T1 sequence (P48546 22-466): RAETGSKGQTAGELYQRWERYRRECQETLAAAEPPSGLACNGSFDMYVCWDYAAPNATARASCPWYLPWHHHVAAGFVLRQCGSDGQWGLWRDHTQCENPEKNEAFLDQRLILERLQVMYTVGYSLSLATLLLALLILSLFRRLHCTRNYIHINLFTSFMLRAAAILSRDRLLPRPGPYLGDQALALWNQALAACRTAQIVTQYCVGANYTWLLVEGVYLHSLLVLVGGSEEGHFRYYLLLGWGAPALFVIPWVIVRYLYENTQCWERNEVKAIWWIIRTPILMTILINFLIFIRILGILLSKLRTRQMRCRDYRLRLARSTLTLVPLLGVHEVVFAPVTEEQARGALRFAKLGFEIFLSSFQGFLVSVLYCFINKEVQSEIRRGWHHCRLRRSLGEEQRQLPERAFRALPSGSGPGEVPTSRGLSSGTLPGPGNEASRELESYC
How it was run: (§1)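 Readings of the HTRF 665/620 nm ratio, which falls as cAMP rises, were converted to nM cAMP using a standard curve after 30 min peptide exposure at 37° C.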

[2] = target: T2, hGCGR (Homo sapiens, UniProt P47871); assay: Functional cAMP formation (HTRF) in HEK-293 clonal cells expressing hGCGR, 0.1% bovine casein, without or with 1.0% human serum albumin; type: cell-based
T2 construct: expressed in transfected cells
T2 sequence (P47871 26-477): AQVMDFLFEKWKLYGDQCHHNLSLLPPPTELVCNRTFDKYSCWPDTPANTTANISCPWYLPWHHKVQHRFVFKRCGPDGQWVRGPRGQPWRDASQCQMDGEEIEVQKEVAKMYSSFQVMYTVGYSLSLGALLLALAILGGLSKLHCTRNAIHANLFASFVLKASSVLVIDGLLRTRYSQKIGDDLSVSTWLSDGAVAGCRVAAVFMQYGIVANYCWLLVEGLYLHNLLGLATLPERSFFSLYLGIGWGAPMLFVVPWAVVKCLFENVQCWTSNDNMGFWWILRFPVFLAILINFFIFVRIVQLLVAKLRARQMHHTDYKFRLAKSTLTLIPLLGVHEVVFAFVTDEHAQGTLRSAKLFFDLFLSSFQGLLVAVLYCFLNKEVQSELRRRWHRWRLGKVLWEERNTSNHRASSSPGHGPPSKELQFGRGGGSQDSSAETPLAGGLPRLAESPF
How it was run: as §1

[3] = target: T3, human GIP receptor (hGIPR) (Homo sapiens, UniProt P48546); assay: [125I]-GIP binding, SPA with membranes of CHO cells expressing hGIPR
T3 construct: expressed in transfected cells; crude membranes
T3 sequence (P48546 22-466): T1 sequence (P48546 22-466)

[4] = target: hGLP-1R (Homo sapiens, UniProt P43220); assay: Functional cAMP formation (HTRF) in HEK-293 clonal cells expressing hGLP-1R, 0.1% bovine casein, without or with 1.0% human serum albumin; type: cell-based; design: expressed in transfected cells; settings: for Emax: percent of maximal response to GLP-1(7-36)NH2; for EC50: geometric mean
Chain of hGLP-1R (P43220 24-463): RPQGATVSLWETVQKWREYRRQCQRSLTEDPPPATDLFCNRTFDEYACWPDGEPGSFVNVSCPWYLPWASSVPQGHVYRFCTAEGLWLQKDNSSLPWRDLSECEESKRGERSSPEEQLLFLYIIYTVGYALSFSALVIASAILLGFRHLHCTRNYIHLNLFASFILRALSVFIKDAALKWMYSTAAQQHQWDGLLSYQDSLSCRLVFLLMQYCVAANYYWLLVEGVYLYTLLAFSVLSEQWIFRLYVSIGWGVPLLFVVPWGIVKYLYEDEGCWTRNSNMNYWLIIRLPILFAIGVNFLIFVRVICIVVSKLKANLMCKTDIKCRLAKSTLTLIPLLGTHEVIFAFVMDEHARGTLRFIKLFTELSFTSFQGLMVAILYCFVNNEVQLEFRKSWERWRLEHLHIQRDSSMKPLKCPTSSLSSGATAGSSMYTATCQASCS
How it was run: as §1

[5] = HEK293, read-out: hGIPR Emax, % ± SEM, cAMP, 37° C., 0.1% bovine casein and 1.0% human serum albumin
[6] = hGIPR EC50, nM (SEM, n), cAMP, 37° C., 0.1% bovine casein (no human serum albumin)
[7] = hGCGR EC50, nM (SEM, n), cAMP, 37° C., 0.1% bovine casein (no human serum albumin), geometric mean
[8] = hGCGR EC50, nM (SEM, n), cAMP, 37° C., 0.1% bovine casein and 1.0% human serum albumin, geometric mean (SEM, n)
[9] = HEK293, read-out: hGLP-1R Emax, % ± SEM, cAMP, 37° C., 0.1% bovine casein, arithmetic mean
[10] = hGLP-1R EC50, nM (SEM, n), cAMP, 37° C., 0.1% bovine casein (no human serum albumin)
[11] = human GIPR, geometric mean (SEM, n), read-out: Binding Affinity Ki, nM (SEM, n) hGIPR

SMILES | Emax [1, 5] [%] | EC50 [1, 6] [nM] | EC50 [2, 7] [nM] | EC50 [2, 8] [nM] | Ki [3] [nM] | Emax [4, 9] [%] | EC50 [4, 10] [nM] | Ki [3, 11] [nM] | also measured
CC[C@H](C)[C@H](NC(=O)[C@H](CC(C)C)NC(=O)[C@](C)(Cc1ccc(O)cc1)NC(=O)[C@H](CCCCNC(=O)COCCOCCNC(=O)COCCOCCNC(=O)COCCOCCNC(=O)CC[C@H](NC(=O)CCCCCCCCCOc1ccc(C(=O)O)cc1)C(=O)O)NC(=O)[C@@H](NC(=O)[C@H](Cc1ccccc1)NC(=O)[C@H](CCC(=O)O)NC(=O)C(C)(C)NC(=O)[C@H](CCC(N)=O)NC(=O)[C@H](C)NC(=O)[C@H](CCC(N)=O)NC(=O)[C@H](CCCN)NC(=O)[C@H](CC(=O)O)NC(=O)[C@H](CC(C)C)NC(=O)[C@](C)(CC(C)C)NC(=O)[C@@H](NC(=O)C(C)(C)NC(=O)[C@H](Cc1ccncc1)NC(=O)[C@H](CC(=O)O)NC(=O)[C@H](CO)NC(=O)[C@@H](NC(=O)[C@](C)(Cc1ccccc1F)NC(=O)[C@@H](NC(=O)CNC(=O)[C@H](CCC(=O)O)NC(=O)C(C)(C)NC(=O)[C@@H](N)Cc1ccc(O)cc1)[C@@H](C)O)[C@@H](C)O)[C@@H](C)CC)[C@@H](C)CC)C(=O)N[C@@H](CCCCNC(=O)COCCOCCNC(=O)COCCOCCNC(=O)COCCOCCNC(=O)CC[C@H](NC(=O)CCCCCCCCCOc1ccc(C(=O)O)cc1)C(=O)O)C(=O)NCC(=O)NCC(=O)N1CCC[C@H]1C(=O)N[C@@H](CO)C(=O)N[C@@H](CO)C(=O)NCC(=O)N[C@@H](C)C(=O)N1CCC[C@H]1C(=O)N1CCC[C@H]1C(=O)N1CCC[C@H]1C(=O)N[C@@H](CO)C(N)=O [Example 464] | 95.5 | 0.00955 | > 10100 | > 10100 | 0.0261 | 114 | 0.161 |  | 
CC[C@H](C)[C@H](NC(=O)[C@H](CC(C)C)NC(=O)[C@](C)(Cc1ccc(O)cc1)NC(=O)[C@H](CCCCNC(=O)CCOCCOCCOCCOCCOCCOCCNC(=O)CC[C@H](NC(=O)CCCCCCCCCOc1ccc(C(=O)O)cc1)C(=O)O)NC(=O)[C@@H](NC(=O)[C@H](Cc1ccccc1)NC(=O)[C@H](CCCN)NC(=O)C(C)(C)NC(=O)[C@H](CCC(N)=O)NC(=O)[C@H](C)NC(=O)[C@H](CCC(N)=O)NC(=O)[C@H](CCCN)NC(=O)[C@H](CC(=O)O)NC(=O)[C@H](CC(C)C)NC(=O)[C@](C)(CC(C)C)NC(=O)[C@@H](NC(=O)C(C)(C)NC(=O)[C@H](Cc1ccncc1)NC(=O)[C@H](CC(=O)O)NC(=O)[C@H](CO)NC(=O)[C@@H](NC(=O)[C@](C)(Cc1ccccc1F)NC(=O)[C@@H](NC(=O)CNC(=O)[C@H](CCC(=O)O)NC(=O)C(C)(C)NC(=O)[C@@H](N)Cc1ccc(O)cc1)[C@@H](C)O)[C@@H](C)O)[C@@H](C)CC)[C@@H](C)CC)C(=O)N[C@@H](CCCCNC(=O)CCOCCOCCOCCOCCOCCOCCNC(=O)CC[C@H](NC(=O)CCCCCCCCCOc1ccc(C(=O)O)cc1)C(=O)O)C(=O)NCC(=O)NCC(=O)N1CCC[C@H]1C(=O)N[C@@H](CO)C(=O)N[C@@H](CO)C(=O)NCC(=O)N[C@@H](C)C(=O)N1CCC[C@H]1C(=O)N1CCC[C@H]1C(=O)N1CCC[C@H]1C(=O)N[C@@H](CO)C(N)=O [Example 468] | 85.9 | 0.00991 | > 10100 | > 10100 | 0.0291 | 109 | 0.168 |  | Emax ([1]; HEK293, read-out: hGIPR Emax, % ± SEM, cAMP, 37° C., 0.1% bovine casein, arithmetic mean): 97.1%
CC[C@H](C)[C@H](NC(=O)[C@H](CC(C)C)NC(=O)[C@](C)(Cc1ccc(O)cc1)NC(=O)[C@@H](CCC(=O)O)NC(=O)[C@@H](NC(=O)[C@H](Cc1ccccc1)NC(=O)[C@H](CCC(=O)O)NC(=O)C(C)(C)NC(=O)[C@H](CCC(N)=O)NC(=O)[C@H](C)NC(=O)[C@H](CCCCNC(=O)COCCOCCNC(=O)CCCCCCCNC(=O)CCCCCCCCCCCCC(=O)O)NC(=O)[C@H](CCCN)NC(=O)[C@H](CC(=O)O)NC(=O)[C@H](CC(C)C)NC(=O)[C@](C)(CC(C)C)NC(=O)[C@@H](NC(=O)C(C)(C)NC(=O)[C@H](Cc1ccncc1)NC(=O)[C@H](CC(=O)O)NC(=O)[C@H](CO)NC(=O)[C@@H](NC(=O)[C@](C)(Cc1ccccc1F)NC(=O)[C@@H](NC(=O)CNC(=O)[C@H](CCC(=O)O)NC(=O)C(C)(C)NC(=O)[C@@H](N)Cc1ccc(O)cc1)[C@@H](C)O)[C@@H](C)O)[C@@H](C)CC)[C@@H](C)CC)C(=O)N[C@@H](CCCCNC(=O)COCCOCCNC(=O)CCCCCCCNC(=O)CCCCCCCCCCCCC(=O)O)C(=O)NCC(=O)NCC(=O)N1CCC[C@H]1C(=O)N[C@@H](CO)C(=O)N[C@@H](CO)C(=O)NCC(=O)N[C@@H](C)C(=O)N1CCC[C@H]1C(=O)N1CCC[C@H]1C(=O)N1CCC[C@H]1C(=O)N[C@@H](CO)C(N)=O [Example 465] |  |  |  |  |  |  |  | 0.0464 | Emax ([1]; HEK293, cAMP, 37° C., 0.1% bovine casein and 1.0% human serum albumin, read-out: hGIPR Emax, % ± SEM): 94.4%; Emax ([1]; HEK293, cAMP, 37° C., 0.1% bovine casein, arithmetic mean, read-out: hGIPR Emax, % ± SEM): 94.9%; EC50 ([1]; cAMP, 37° C., 0.1% bovine casein (no human serum albumin), read-out: hGIPR EC50, nM (SEM, n)): 0.0174 nM; EC50 ([2]; cAMP, 37° C., 0.1% bovine casein (no human serum albumin), geometric mean, read-out: hGCGR EC50, nM (SEM, n)): > 9950 nM; EC50 ([2]; cAMP, 37° C., 0.1% bovine casein and 1.0% human serum albumin, geometric mean (SEM, n), read-out: hGCGR EC50, nM (SEM, n)): > 9950 nM; Emax ([4]; HEK293, cAMP, 37° C., 0.1% bovine casein and 1.0% human serum albumin, read-out: hGLP-1R Emax, % ± SEM): 93.3%; EC50 ([4]; cAMP, 37° C., 0.1% bovine casein (no human serum albumin), read-out: hGLP-1R EC50, nM (SEM, n)): 0.413 nM
CCCCCCCCCCCCCCCC(=O)N[C@@H](CCC(=O)NCCOCCOCC(=O)NCCOCCOCC(=O)NCCCC[C@H](NC(=O)CNC(=O)CNC(=O)[C@H](CCCCNC(=O)COCCOCCNC(=O)COCCOCCNC(=O)CC[C@H](NC(=O)CCCCCCCCCCCCCCC)C(=O)O)NC(=O)[C@@H](NC(=O)[C@H](CC(C)C)NC(=O)[C@](C)(Cc1ccc(O)cc1)NC(=O)[C@@H](CCC(=O)O)NC(=O)[C@@H](NC(=O)[C@H](Cc1ccccc1)NC(=O)[C@H](CCC(=O)O)NC(=O)C(C)(C)NC(=O)[C@H](CCC(N)=O)NC(=O)[C@H](C)NC(=O)[C@@H](NC(=O)[C@H](CCCN)NC(=O)[C@H](CC(=O)O)NC(=O)[C@H](CC(C)C)NC(=O)[C@](C)(CC(C)C)NC(=O)[C@@H](NC(=O)[C@H](CO)NC(=O)[C@H](Cc1ccncc1)NC(=O)[C@H](CC(=O)O)NC(=O)[C@H](CO)NC(=O)[C@@H](NC(=O)[C@](C)(Cc1ccccc1F)NC(=O)[C@@H](NC(=O)CNC(=O)[C@H](CCC(=O)O)NC(=O)C(C)(C)NC(=O)[C@@H](N)Cc1ccc(O)cc1)[C@@H](C)O)[C@@H](C)O)[C@@H](C)CC)[C@@H](C)CC)[C@@H](C)CC)[C@@H](C)CC)C(=O)N[C@@H](CO)C(=O)N[C@@H](CO)C(=O)NCC(=O)N[C@@H](C)C(=O)N1CCC[C@H]1C(=O)N1CCC[C@H]1C(=O)N1CCC[C@H]1C(=O)N[C@@H](CO)C(N)=O)C(=O)O [Example 26] |  |  |  |  |  |  |  | 0.0863 | EC50 ([1]; 0.1% bovine casein and 1.0% human serum albumin, 37° C., read-out: hGIPR EC50, nM (SEM, n)): 1.2 nM; Emax ([1]; HEK293, 0.1% bovine casein and 1.0% human serum albumin, 37° C., read-out: hGIPR Emax, % ± SEM): 95.4 ± 2.54%; EC50 ([1]; cAMP, incubated at 37° C., 0.1% bovine casein (no human serum albumin), read-out: hGIPR EC50, nM (SEM, n)): 0.0218 nM; EC50 ([2]; 0.1% bovine casein and 1.0% human serum albumin, 37° C., geometric mean, read-out: hGCGR EC50, nM (SEM, n)): > 9950 nM; EC50 ([2]; cAMP, incubated at 37° C., 0.1% bovine casein (no human serum albumin), geometric mean, read-out: hGCGR EC50, nM (SEM, n)): > 9950 nM; EC50 ([4]; 0.1% bovine casein and 1.0% human serum albumin, 37° C., read-out: hGLP-1R EC50, nM (SEM, n)): 3.93 nM
